Laboratory results: paper PMC10037499, “High-Throughput Screen Reveals the Structure–Activity Relationship of the Antimicrobial Lasso Peptide Ubonodin” (ACS Central Science, 2023)
Where a SMILES comes first, the peptide text is derived from it.

Columns and labels:
B. cenocepacia AU0756 = tested on: B. cenocepacia AU0756
Protocol: We proceeded to test the antimicrobial activity of the selected variants against two clinical isolates of the Bcc, B. cenocepacia AU0756 and B. cenocepacia AU24362, in broth microdilution assays. […] We revisited these measurements using broth microdilution assays following the Clinical & Laboratory Standards Institute (CLSI) standard.
Broth microdilution assays of the ubonodin variants were conducted using B. cenocepacia AU0756 and B. cenocepacia AU24362 with guidelines provided by the Clinical & Laboratory Standards Institute (CLSI).

[1] = tested on: RNA polymerase (RNAP) in E. coli MC1061; test: High-throughput growth-based screen with NGS (enrichment value) for RNA polymerase inhibition; assay type: cell-based; set-up: key to Experimental observation (enrichment observed in the screen): Dropout: Many variants inhibit RNAP so strongly that they cannot be detected by NGS after IPTG induction (referred to as dropout variants); settings: for Experimental observation (enrichment observed in the screen): Table S4, variants whose MICs were tested; for Enrichment: case.csv of the DeepLasso code, screen stage and IPTG concentration not stated
Protocol: The single mutant library was analyzed by NGS at multiple stages of sample preparation (Figure 2A) to track its evolution throughout the screen. Specifically, the frequency of each possible aa variant was computed at each stage by summing up counts for each distinct translated sequence and dividing by the total number of counts for all variants (eq S1, SI Methods). Since cells expressing an RNAP-inhibiting ubonodin variant will have growth defects relative to cells with a nontoxic variant, RNAP-inhibiting ubonodin variants are expected to decrease in frequency throughout the screen.
First, the naïve library (digested PCR products) was sequenced. These digested PCR products were cloned into the pUboABC backbone and transformed into a recA^– cloning strain. This plasmid library was sequenced again to capture any changes upon transformation of the library into E. coli. The change between the naïve library and the cloning transformation library was minimal (Figure S6A). This plasmid library was transformed into the screening strain MC1061, and the plasmid from resulting colonies was also sequenced. The library in MC1061 was grown up en masse in liquid culture to mid log phase, and a portion of the culture was plated. These colonies were scraped, then the plasmid was isolated and sequenced. Finally, the liquid culture was induced with IPTG, after which a portion of the culture was plated and the plasmid was isolated and sequenced. It is key to note that all samples from liquid cultures were plated prior to sequencing to ensure that only viable cells were sequenced. […] The rationale for sequencing at these five different stages was the possibility that leaky expression of uboA would affect the frequency of active mutants prior to IPTG induction. Indeed, we observed that the frequency of some uboA mutants dropped as soon as they were transformed into the screening strain MC1061 while the frequency of other mutants climbed (Figure 2B).
The behavior of the point variants (i.e., variants with a single aa substitution) was examined by calculating their enrichment values, the base-2 logarithm of the ratio of the variant’s frequency at a specific step of the screen to the variant’s frequency in the cloning transformation library (eq S3, Figure S6). The most relevant enrichment value for ubonodin activity is the comparison between the post-IPTG library and the cloning transformation library (Figure 2A). […] Many variants inhibit RNAP so strongly that they cannot be detected by NGS after IPTG induction (referred to as dropout variants). […] Variants with a stop codon mutation and variants containing an aa substitution at Tyr9 or Tyr27 (positions conserved in MccJ25 and shown to be crucial for RNAP inhibition, see Figure S7)[26] have positive enrichment values (1.2–1.7), serving as quality control for the screen (Figure 3A). Strikingly, 63% of point variants decreased in frequency, indicating a high tolerance to aa substitution. […] The positions with active variants are Asn11 through Ser24 in the loop and Asp3, Ser5, and Ala7 in the ring.
The single mutant and double mutant libraries were transformed into E. coli MC1061. Colonies were resuspended in media and subcultured into a larger culture. Aliquots of the cultures were sampled prior to and after induction with 10 μM IPTG and 100 μM IPTG and plated. After 16 h of incubation, the colonies were resuspended in media and plasmids were miniprepped.
Samples were PCR amplified with barcoded primers and combined such that double mutant library samples were over-represented compared to single mutant library samples to provide sufficient coverage of the larger double mutant library. Samples were sequenced using an Illumina MiSeq Micro 300nt and an Illumina NovaSeq 6000 Sequencing System. Downstream analysis of the data was conducted with Python, MATLAB, and R.
V to reduce genomic DNA contamination. One fragment was amplified with Xho I For Lib and a […]

E. coli MC1061 = test: Spot dilution assay of E. coli producing the ubonodin variant from pUboABC; assay type: cell-based; settings: biological duplicates; for Inhibits Growth: variant in pUboABC backbone in E. coli MC1061, induction with 100 μM IPTG, ten-fold serial dilutions
Protocol: Cultures of E. coli MC1061 transformed with the appropriate plasmids were grown. Aliquots of the cultures were sampled prior to and after induction with 100 μM IPTG, and 10-fold serial dilutions were plated. […]
All cloning was conducted by PCR amplification (using Q5 polymerase), restriction digestion, ligation, (using T4 DNA ligase), and transformation into chemically competent E. coli XL1-Blue. All cloning with a pUboABC backbone was done by plating transformation mixt ures onto Lysogeny Broth (LB) plates supplemented with 100 μg/mL ampicillin and 0.2% w/v glucose, and colonies were inoculated into LB media supplemented with 100 μ g/mL ampicillin and 0.2% w/v glucose to suppress any leaky expression. Cloning for all other plasmid constructs was done by plating transformation mixtures onto Lysogeny Broth (LB) plates supplemented with 100 μ g/ m L ampicillin, and colonies were inoculated into LB media supplemented with 100 μ g/ m L ampicillin.
Plasmids were extracted using Qiagen QIAprep Spin Miniprep Kit and sequence verified using Sanger sequencing. All primer sequences are listed in Table S7, and all plasmid constructs are […]
pUboABC was cloned by amplifying pWC99 with pQE-80 NheI For and pAT8 Nco I Rev.
The amplicon was ligated into pWC99 digested with Nhe I and Nco I. pUboBC was cloned by digesting pUboABC with Nh e I and Nco I and ligating that fragment into pQE-80 digested with Nhe I and Nco I. pUboABC S5H I16P and pUboABCD S5H I16P were cloned with overlap PCR using pWC99 as the template. One fragment was amplified with pQE-80 EcoRI For and S5H I16P Rev v2 and the second fragment was amplified with S5H I16P For v2 and pQE-80 HindII I Rev. […]
All remaining plasmid constructs were cloned with overlap PCR. One fragment was amplified with Xho I For Lib and a mutagenic reverse primer and the second fragment was amplified with NheI Rev Lib and a mutagenic forward primer. The templates and mutagenic […]
The fragments were joined with a second round of PCR and amplified with XhoI For Lib and NheI Rev Lib. Amplicons were ligated into the appropriate plasmid backbone digested with Xho I and Nhe I-HF. The plasmid backbones […]
The appropriate plasmid was transformed into electrocompetent E. coli MC1061, plated onto LB plates supplemented with 100 μ g/ m L ampicillin and 0.2% w/v glucose, and incubated at 30 °C for 16 hours. Colonies were inoculated into LB media supplemented with 100 μ g/ m L ampicillin and 0.2% w/v glucose and grown at 37 °C for 16 hours. These cultures were sub-cultured to an OD600 of 0.02 in 50 mL of LB media supplemented with 100 μg/mL ampicillin in a 250 mL flask. Once the OD600 reached 0.3, a 1 mL aliquot was sampled immediately prior to inducing the cultures with 100 μM isopropyl β-D-1-thiogalactopyranoside (IPTG). The aliquot was washed with Phosphate-Buffered Saline (PBS) two times and ten-fold serial dilutions were spotted onto LB plates supplemented with 100 μ g/ m L ampicillin and 0.2% w/v glucose. For each following timepoint, a 1 mL sample of each culture was withdrawn, washed with PBS two times, and ten- […]
fold serial dilutions were spotted onto LB plates supplemented with 100 μ g/m L ampicillin and 0.2% w/v glucose. Plates were incubated for 16 hours at 37 °C before imaging. […]
250 mL flask. Ten-fold serial dilutions of the culture were plated onto LB plates supplemented with 100 μ g/ m L ampicillin and 0.2% w/v glucose. The cultures were then grown at 37 °C, and once the OD600 reached 0.3, a 1 mL sample of the culture was withdrawn immediately before the cultures were induced with 10 μM or 100 μM IPTG and returned to grow longer. […]
All plates were incubated at 37 °C for 16 hours, after which the number of colonies was counted. Three biological replicates of this assay were done.
Co-Culture of E. coli MC1061 pUboABC and E. coli MC1061 pUboBC pUboABC (0.9 ng) and pUboBC (0.1 ng) were transformed into electrocompetent E. coli MC1061 with a one- hour outgrowth at 37 °C in LB media supplemented with 0.2% w/v glucose. […]

| Compound | B. cenocepacia AU0756 MIC (B. cenocepacia AU0756) [µM] | Experimental observation (enrichment observed in the screen) [1] | Time after induction at which the toxic effect was observed (E. coli MC1061; pUboABC backbone) [h] | Inhibits Growth (E. coli MC1061) | Enrichment [1] |
| --- | --- | --- | --- | --- | --- |
| CC[C@H](C)[C@@H]1NC(=O)[C@H](CO)NC(=O)CNC(=O)[C@H](CC(=O)O)NC(=O)CNC(=O)CNC(=O)CC[C@@H](C(=O)N[C@@H](Cc2ccc(O)cc2)C(=O)N[C@@H](Cc2ccccc2)C(=O)N[C@@H](CCSC)C(=O)N[C@@H](CCCNC(=N)N)C(=O)N2CCC[C@H]2C(=O)N[C@@H](CCSC)C(=O)N[C@@H](Cc2c[nH]cn2)C(=O)N[C@H](C(=O)N[C@@H](Cc2c[nH]cn2)C(=O)N[C@@H](CC(=O)O)C(=O)N[C@@H](Cc2c[nH]c3ccccc23)C(=O)N[C@@H](CCC(N)=O)C(=O)N[C@H](C(=O)N[C@@H](CCSC)C(=O)N[C@@H](CC(=O)O)C(=O)N[C@@H](CO)C(=O)NCC(=O)N[C@@H](Cc2ccc(O)cc2)C(=O)N[C@@H](Cc2ccc(O)cc2)C(=O)NCC(=O)O)[C@@H](C)CC)[C@@H](C)CC)NC(=O)CNC1=O [A7G N11M] (HELM PEPTIDE1{G.G.D.G.S.I.G.E.Y.F.M.R.P.M.H.I.H.D.W.Q.I.M.D.S.G.Y.Y.G}$PEPTIDE1,PEPTIDE1,1:R1-8:R3$$$V2.0) | >8 | Dropout | 6 | Yes | – |
| CC[C@H](C)[C@H](NC(=O)[C@H](CCC(N)=O)NC(=O)[C@H](Cc1c[nH]c2ccccc12)NC(=O)[C@H](CC(=O)O)NC(=O)[C@H](Cc1c[nH]cn1)NC(=O)[C@H](C)NC(=O)[C@H](Cc1c[nH]cn1)NC(=O)[C@H](CCSC)NC(=O)[C@@H]1CCCN1C(=O)[C@H](CCCNC(=N)N)NC(=O)[C@H](CC(N)=O)NC(=O)[C@H](Cc1ccccc1)NC(=O)[C@H](Cc1ccc(O)cc1)NC(=O)[C@@H]1CCC(=O)NCC(=O)NCC(=O)N[C@@H](CC(=O)O)C(=O)NCC(=O)N[C@@H](CO)C(=O)N[C@@H]([C@@H](C)CC)C(=O)N2CCC[C@H]2C(=O)N1)C(=O)N[C@@H](CCSC)C(=O)N[C@@H](CC(=O)O)C(=O)N[C@@H](CO)C(=O)NCC(=O)N[C@@H](Cc1ccc(O)cc1)C(=O)N[C@@H](Cc1ccc(O)cc1)C(=O)NCC(=O)O [A7P I16A] (HELM PEPTIDE1{G.G.D.G.S.I.P.E.Y.F.N.R.P.M.H.A.H.D.W.Q.I.M.D.S.G.Y.Y.G}$PEPTIDE1,PEPTIDE1,1:R1-8:R3$$$V2.0) | 4 to 8 | Dropout | – | Yes | – |
| CC[C@H](C)[C@H](NC(=O)[C@H](CCC(N)=O)NC(=O)[C@H](Cc1c[nH]c2ccccc12)NC(=O)[C@H](CC(=O)O)NC(=O)[C@H](Cc1c[nH]cn1)NC(=O)[C@@H](NC(=O)[C@H](Cc1c[nH]cn1)NC(=O)[C@H](CCSC)NC(=O)[C@@H]1CCCN1C(=O)[C@H](CCCNC(=N)N)NC(=O)[C@H](CC(N)=O)NC(=O)[C@H](Cc1ccccc1)NC(=O)[C@H](Cc1ccc(O)cc1)NC(=O)[C@@H]1CCC(=O)NCC(=O)NCC(=O)N[C@@H](CC(=O)O)C(=O)NCC(=O)N[C@@H](CO)C(=O)N[C@@H]([C@@H](C)CC)C(=O)N2CCC[C@H]2C(=O)N1)[C@@H](C)CC)C(=O)N[C@@H](CCSC)C(=O)N[C@@H](CC(=O)O)C(=O)N[C@@H](CO)C(=O)NCC(=O)N[C@@H](Cc1ccc(O)cc1)C(=O)N[C@@H](Cc1ccc(O)cc1)C(=O)NCC(=O)O [A7P] (HELM PEPTIDE1{G.G.D.G.S.I.P.E.Y.F.N.R.P.M.H.I.H.D.W.Q.I.M.D.S.G.Y.Y.G}$PEPTIDE1,PEPTIDE1,1:R1-8:R3$$$V2.0; C-terminus assumed) | 2 | -3.4 | – | Yes | – |
| GGDGSI*EYFNRPMVIHDWQIMDSGMYG | – | – | – | – | 4.338 |
| GGDGSIAEYFNRPMHIHEWQIM*SGYYG | – | – | – | – | 4.458 |
